Experimental data published in ChEMBL document CHEMBL1141877 (J Med Chem, 2005).

What was measured:
Acetylcholinesterase = molecular target: T1, Acetylcholinesterase (Rattus norvegicus, UniProt P37136); experiment: Inhibitory concentration against acetylcholinesterase of rat cortex homogenate
T1 sequence (P37136 whole entry): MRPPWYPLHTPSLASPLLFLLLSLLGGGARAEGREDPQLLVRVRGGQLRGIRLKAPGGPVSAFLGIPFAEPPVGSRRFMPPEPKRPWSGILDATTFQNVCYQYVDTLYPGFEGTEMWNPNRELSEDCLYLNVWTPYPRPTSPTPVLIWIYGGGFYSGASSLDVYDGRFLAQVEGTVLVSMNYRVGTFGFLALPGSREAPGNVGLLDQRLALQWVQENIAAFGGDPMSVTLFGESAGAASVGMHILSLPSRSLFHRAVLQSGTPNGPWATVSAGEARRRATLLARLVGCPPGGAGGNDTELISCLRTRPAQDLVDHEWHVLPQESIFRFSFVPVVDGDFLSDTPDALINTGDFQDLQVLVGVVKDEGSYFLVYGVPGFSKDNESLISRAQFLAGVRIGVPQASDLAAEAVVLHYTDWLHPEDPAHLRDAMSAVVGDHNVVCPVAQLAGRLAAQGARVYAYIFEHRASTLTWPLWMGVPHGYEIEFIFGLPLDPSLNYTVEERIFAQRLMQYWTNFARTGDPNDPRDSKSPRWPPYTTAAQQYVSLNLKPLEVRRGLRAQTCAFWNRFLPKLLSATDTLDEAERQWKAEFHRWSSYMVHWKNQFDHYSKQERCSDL

Butyrylcholinesterase = Butyrylcholinesterase (Rattus norvegicus, UniProt Q9JKC1); experiment: Inhibitory concentration against butyrylcholinesterase of rat serum
Butyrylcholinesterase, sequence (Q9JKC1 whole entry): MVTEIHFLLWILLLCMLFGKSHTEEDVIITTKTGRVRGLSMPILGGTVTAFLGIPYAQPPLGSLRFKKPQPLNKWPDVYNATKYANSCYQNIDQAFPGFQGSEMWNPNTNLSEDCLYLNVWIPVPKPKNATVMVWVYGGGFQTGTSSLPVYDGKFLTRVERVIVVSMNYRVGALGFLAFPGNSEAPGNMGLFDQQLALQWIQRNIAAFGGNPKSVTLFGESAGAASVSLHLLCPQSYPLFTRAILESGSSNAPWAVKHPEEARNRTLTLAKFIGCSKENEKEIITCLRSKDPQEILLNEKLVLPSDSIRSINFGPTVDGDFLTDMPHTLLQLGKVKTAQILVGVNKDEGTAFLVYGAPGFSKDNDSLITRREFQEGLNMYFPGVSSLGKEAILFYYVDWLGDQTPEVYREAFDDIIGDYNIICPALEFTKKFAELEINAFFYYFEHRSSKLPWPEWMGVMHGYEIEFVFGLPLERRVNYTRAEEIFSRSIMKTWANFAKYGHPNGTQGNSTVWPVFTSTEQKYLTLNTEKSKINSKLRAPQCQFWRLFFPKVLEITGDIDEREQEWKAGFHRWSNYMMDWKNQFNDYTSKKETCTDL

CC1=CC2Cc3[nH]c(=O)ccc3[C@@]3(C1)[C@@H]2CCCN3C(=O)CCN(C)CCCCCCN(C)CCC(=O)N1CCC[C@@H]2C3C=C(C)C[C@]21c1ccc(=O)[nH]c1C3
IC50 (Acetylcholinesterase): 0.0359 µM | IC50 (Butyrylcholinesterase): 67.9 µM

CC1=CC2Cc3[nH]c(=O)ccc3[C@@]3(C1)[C@@H]2CCCN3C(=O)CN(C)CCCCCCCCN(C)CC(=O)N1CCC[C@@H]2C3C=C(C)C[C@]21c1ccc(=O)[nH]c1C3
IC50 (Acetylcholinesterase): 0.0508 µM | IC50 (Butyrylcholinesterase): 65.4 µM

CC1=CC2Cc3[nH]c(=O)ccc3[C@@]3(C1)[C@@H]2CCCN3C(=O)CN(C)CCN(C)CC(=O)N1CCC[C@@H]2C3C=C(C)C[C@]21c1ccc(=O)[nH]c1C3 [BIS(8)-HUPERZINE B]
IC50 (Acetylcholinesterase): 1.02 µM

CC1=CC2Cc3[nH]c(=O)ccc3[C@@]3(C1)[C@@H]2CCCN3C(=O)CN(C)CCCN(C)CC(=O)N1CCC[C@@H]2C3C=C(C)C[C@]21c1ccc(=O)[nH]c1C3 [BIS(9)-HUPERZINE B]
IC50 (Acetylcholinesterase): 0.471 µM | IC50 (Butyrylcholinesterase): 60 µM

CC1=CC2Cc3[nH]c(=O)ccc3[C@@]3(C1)[C@@H]2CCCN3C(=O)CN(C)CCCCCCN(C)CC(=O)N1CCC[C@@H]2C3C=C(C)C[C@]21c1ccc(=O)[nH]c1C3 [BIS(12)-HUPERZINE B]
IC50 (Acetylcholinesterase): 0.0762 µM | IC50 (Butyrylcholinesterase): 64.5 µM

CC1=CC2Cc3[nH]c(=O)ccc3[C@@]3(C1)[C@@H]2CCCN3C(=O)CCN(C)CCCCCCCCN(C)CCC(=O)N1CCC[C@@H]2C3C=C(C)C[C@]21c1ccc(=O)[nH]c1C3 [BIS(16)-HUPERZINE B]
IC50 (Acetylcholinesterase): 0.0185 µM | IC50 (Butyrylcholinesterase): 63 µM

CC1=CC2Cc3[nH]c(=O)ccc3[C@@]3(C1)[C@@H]2CCCN3C(=O)CCN(C)CCCCCCCCCCN(C)CCC(=O)N1CCC[C@@H]2C3C=C(C)C[C@]21c1ccc(=O)[nH]c1C3 [BIS(18)-HUPERZINE B]
IC50 (Acetylcholinesterase): 0.00493 µM | IC50 (Butyrylcholinesterase): 54.3 µM

CC1=CC2Cc3[nH]c(=O)ccc3[C@@]3(C1)[C@@H]2CCCN3C(=O)CCN(C)CCCCCCCCCCCCN(C)CCC(=O)N1CCC[C@@H]2C3C=C(C)C[C@]21c1ccc(=O)[nH]c1C3 [BIS(20)-HUPERZINE B]
IC50 (Acetylcholinesterase): 0.0252 µM | IC50 (Butyrylcholinesterase): 88.4 µM

CC1=C[C@H]2Cc3[nH]c(=O)ccc3[C@]3(C1)NCCC[C@H]23 [HUPERZINE B]
IC50 (Acetylcholinesterase): 19.3 µM | IC50 (Butyrylcholinesterase): 227 µM
